Data taken from patent publication US20100249205A1 (ARIZONA BOARD OF REGENTS, priority 2005, published 2010).
Like-named read-outs stand apart in the source and are kept apart here.

Tests used:
PI-3 kinase = assay type: biochemical; details: read-out: PI-3 kinase inhibition IC50
mTOR = mTOR (Homo sapiens, UniProt P42345); experiment: mTOR inhibition (Table 1); assay type: biochemical
NCI cell panel = experiment: Cytotoxicity, NCI cell panel (growth inhibition, MTT assay); details: Homo sapiens, read-out: Cytotoxicity: NCI cell panel IC50
Description: The proliferation of cells may be dependent on the PI-3 kinase-Akt-mTOR signaling pathway. In addition, signaling through PI-3 kinase and Akt appears to inhibit apoptosis. […] The MTT assay is a standard colorimetric assay for measuring cellular proliferation (cell growth). It is universally used to determine cytotoxicity of potential medicinal agents and other toxic materials. Yellow MTT (3-(4,5-Dimethylthiazol-2-yl)-2,5-diphenyltetrazolium bromide) is reduced to purple formazan in the mitochondria of living cells. This reduction takes place only when mitochondrial reductase enzymes are active, and therefore conversion is directly related to the number of viable (living) cells. […] Toxicities are measured at the maximum tolerated dose or the highest dose tested. […] Alanine aminotranferease (ALT) and aspartate aminotransferase (AST) are enzymes located in liver cells that leak out into the general circulation when liver cells are injured. […] A low liver toxicity and a high lymphocyte toxicity as a surrogate for inhibition of tumor cell growth is the desirable feature.

[1] = test system: phospho-Ser^473-Akt in HT-29 colon cancer cells; experiment: Inhibition of EGF-dependent activation of Akt (phospho-Ser473-Akt western blot); assay type: cell-based, human; details: HT-29 cells, 4 hours exposure, EGF 50 ng/ml for 20 minutes
Procedure: The cells were then stimulated with epidermal growth factor (EGF) at 50 ng/ml for 20 minutes. Cells were lysed and the proteins were separated on an SDS-PAGE and transferred to nitrocellulose.

[2] = test system: HT-29 human colon cancer cells; experiment: Cytotoxicity / cell growth inhibition in HT-29 cells, cell number by flow cytometry; assay type: cell-based; details: read-out: growth inhibitory concentration 50% (IC50)
Procedure: The compounds were added from a 10 mg/ml stock solution in ethanol. Cell number was determined after 3 days by flow cytometry using a Guava EasyCyte Plus flow cytometer (Guava Technologies). The results are expressed as cell number at the end of the assay as percent of the control value with no drug. Values are the mean of 3 determinations and bars are standard deviation.

[3] = target: T1, recombinant bovine p110α/p85α (Bos taurus, UniProt P32871); experiment: Recombinant PI-3 kinase inhibition, [32P]γ-ATP dependent phosphorylation of phosphatidylinositol; assay type: biochemical
T1 construct: purchased Jena Bioscience, Jena, Germany
T1 sequence (P32871 whole entry): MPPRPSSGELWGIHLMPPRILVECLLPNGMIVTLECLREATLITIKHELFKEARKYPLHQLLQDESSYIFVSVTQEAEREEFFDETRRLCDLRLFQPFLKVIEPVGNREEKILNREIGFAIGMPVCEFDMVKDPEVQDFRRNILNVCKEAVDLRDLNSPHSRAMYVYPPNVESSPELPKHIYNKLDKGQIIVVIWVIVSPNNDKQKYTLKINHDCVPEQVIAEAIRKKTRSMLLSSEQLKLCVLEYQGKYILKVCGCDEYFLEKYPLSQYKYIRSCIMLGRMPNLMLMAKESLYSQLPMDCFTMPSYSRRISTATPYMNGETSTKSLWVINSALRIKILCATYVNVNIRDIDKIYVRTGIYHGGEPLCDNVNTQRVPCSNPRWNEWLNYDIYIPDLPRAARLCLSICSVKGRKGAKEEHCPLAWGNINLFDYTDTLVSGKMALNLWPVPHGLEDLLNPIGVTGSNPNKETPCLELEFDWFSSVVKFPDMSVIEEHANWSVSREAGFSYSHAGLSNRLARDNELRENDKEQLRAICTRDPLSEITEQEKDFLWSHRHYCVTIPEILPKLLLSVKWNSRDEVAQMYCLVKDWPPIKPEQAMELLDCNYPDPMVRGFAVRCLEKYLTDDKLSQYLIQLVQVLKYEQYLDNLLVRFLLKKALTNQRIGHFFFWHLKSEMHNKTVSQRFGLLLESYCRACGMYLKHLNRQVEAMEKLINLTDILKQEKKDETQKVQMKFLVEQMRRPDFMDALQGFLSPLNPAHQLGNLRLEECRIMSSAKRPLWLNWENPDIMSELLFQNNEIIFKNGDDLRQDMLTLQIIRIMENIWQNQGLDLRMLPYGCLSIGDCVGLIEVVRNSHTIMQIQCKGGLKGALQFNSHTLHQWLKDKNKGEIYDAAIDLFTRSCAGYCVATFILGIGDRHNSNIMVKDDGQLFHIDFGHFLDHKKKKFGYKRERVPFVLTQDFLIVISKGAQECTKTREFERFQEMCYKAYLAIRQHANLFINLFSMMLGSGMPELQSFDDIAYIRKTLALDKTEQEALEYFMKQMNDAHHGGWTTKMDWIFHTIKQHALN
T1 sequence (P23727 whole entry partner): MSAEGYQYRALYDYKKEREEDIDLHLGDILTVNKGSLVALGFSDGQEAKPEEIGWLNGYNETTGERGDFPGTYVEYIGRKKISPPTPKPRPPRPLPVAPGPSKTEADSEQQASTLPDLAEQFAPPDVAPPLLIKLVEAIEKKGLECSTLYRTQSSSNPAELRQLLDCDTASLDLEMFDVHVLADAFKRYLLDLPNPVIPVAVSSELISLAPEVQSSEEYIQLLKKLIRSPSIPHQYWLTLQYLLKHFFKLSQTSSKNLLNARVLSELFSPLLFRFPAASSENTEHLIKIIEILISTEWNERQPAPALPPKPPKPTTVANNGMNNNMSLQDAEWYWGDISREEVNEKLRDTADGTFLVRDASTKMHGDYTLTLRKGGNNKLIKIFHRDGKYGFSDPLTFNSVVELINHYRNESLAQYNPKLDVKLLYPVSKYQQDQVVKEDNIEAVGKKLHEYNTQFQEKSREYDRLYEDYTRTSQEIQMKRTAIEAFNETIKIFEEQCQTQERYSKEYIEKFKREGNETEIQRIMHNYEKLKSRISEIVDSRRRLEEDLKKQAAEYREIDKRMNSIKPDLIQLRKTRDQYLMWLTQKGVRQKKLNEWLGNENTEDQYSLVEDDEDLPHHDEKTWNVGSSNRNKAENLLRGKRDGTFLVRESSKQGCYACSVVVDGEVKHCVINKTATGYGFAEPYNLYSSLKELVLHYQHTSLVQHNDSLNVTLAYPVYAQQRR

[4] = target: T2, recombinant human p110δ/p85α (Homo sapiens, UniProt O00329); experiment: as above; assay type: biochemical
T2 construct: purchased Upstate, Charlottesville, Va
T2 sequence (O00329 whole entry): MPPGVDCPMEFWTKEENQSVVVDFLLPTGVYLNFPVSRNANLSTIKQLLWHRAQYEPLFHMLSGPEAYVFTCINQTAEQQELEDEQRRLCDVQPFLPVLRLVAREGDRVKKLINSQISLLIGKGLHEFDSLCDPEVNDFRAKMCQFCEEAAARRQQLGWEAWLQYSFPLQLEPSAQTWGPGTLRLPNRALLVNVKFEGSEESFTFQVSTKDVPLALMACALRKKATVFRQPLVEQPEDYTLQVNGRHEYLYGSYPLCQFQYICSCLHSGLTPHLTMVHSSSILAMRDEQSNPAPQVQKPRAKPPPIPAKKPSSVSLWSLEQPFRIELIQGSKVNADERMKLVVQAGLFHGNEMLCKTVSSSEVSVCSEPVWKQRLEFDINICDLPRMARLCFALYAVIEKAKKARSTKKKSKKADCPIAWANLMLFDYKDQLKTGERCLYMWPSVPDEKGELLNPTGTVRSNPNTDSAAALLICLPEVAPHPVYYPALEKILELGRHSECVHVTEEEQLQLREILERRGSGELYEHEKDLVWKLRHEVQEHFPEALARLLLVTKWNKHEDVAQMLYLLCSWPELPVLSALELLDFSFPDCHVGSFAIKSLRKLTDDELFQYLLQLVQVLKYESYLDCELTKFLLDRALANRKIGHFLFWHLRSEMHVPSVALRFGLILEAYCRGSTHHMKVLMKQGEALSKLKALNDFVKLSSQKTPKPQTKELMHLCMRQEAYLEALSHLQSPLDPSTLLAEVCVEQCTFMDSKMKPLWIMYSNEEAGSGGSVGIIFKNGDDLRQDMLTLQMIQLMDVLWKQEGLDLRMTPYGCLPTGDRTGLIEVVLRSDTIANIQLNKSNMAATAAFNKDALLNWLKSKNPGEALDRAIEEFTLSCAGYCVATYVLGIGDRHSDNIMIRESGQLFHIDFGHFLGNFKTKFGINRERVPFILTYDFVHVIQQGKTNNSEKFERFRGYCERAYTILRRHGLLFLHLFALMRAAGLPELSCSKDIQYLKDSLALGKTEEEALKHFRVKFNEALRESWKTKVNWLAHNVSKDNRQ
T2 sequence (P27986 whole entry partner): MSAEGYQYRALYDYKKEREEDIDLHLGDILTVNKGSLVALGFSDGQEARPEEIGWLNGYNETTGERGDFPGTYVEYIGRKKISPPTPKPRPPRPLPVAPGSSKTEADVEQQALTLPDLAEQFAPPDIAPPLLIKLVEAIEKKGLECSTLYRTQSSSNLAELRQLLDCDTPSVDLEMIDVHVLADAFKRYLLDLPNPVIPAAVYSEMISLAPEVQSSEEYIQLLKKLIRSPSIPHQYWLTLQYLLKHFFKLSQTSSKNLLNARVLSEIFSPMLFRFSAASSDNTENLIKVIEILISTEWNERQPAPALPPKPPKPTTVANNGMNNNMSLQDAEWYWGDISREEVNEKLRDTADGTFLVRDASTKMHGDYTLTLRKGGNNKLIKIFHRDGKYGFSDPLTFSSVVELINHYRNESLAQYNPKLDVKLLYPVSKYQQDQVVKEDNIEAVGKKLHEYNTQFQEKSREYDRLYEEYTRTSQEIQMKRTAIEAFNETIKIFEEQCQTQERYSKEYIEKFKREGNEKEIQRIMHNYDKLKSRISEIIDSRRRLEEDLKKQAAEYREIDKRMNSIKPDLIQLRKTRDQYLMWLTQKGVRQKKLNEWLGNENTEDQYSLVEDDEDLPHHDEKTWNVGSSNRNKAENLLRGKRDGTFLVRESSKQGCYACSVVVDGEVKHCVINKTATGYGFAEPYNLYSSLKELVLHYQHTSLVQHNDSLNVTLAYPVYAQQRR

[5] = Stability of PX-866 in buffer systems by HPLC; assay type: physicochemical; details: for % remaining / % degradation: 1 mg/mL; for % remaining: within 2 hours, 4° C.; for % degradation: after 2 hours of storage
Procedure: This solution was used as a stock to make the various test buffer solutions to be analyzed. The stock, in each case, was diluted 1:10 to a final storage concentration of 1 mg/mL with 5% dextrose for injection (D5W), sterile water for injection (SW), 0.9% sodium chloride for injection (NS), absolute ethanol (EtOH), and 20 mM sodium phosphate (NaH2PO4) buffer. Prior to analysis the test buffers were further diluted 1:100, to a final analytical concentration of 10 μg/mL, with 50:50 0.2% formic acid:methanol, v:v. 50 μL of each sample was then injected into the HPLC system (Alliance 2695 Separation Module, Waters, Milford, Mass.; see Table 2 for HPLC parameters) for analysis. The 2 hour and 24 hour test samples were stored, undiluted, at 4° C. prior to analysis while the 0 hour samples were immediately quantified following dilution.

[6] = In vitro metabolism in murine S9 fractions; assay type: in vitro ADME; details: phase I, phase II and phase I/II reactions, 60 min
Procedure: Metabolites generated in these reactions were identified by HPLC runs, using a wavelength of 310 nm (see FIG. 6C). Peaks representing metabolites were identified by comparing the HPLC profiles (at 310 nm) in chromatograms from 0 min and 60 min reaction times. The corresponding mass spectral (MS) analysis of these peaks, using quadrupolar time-of-flight MS allowed the accurate mass of the metabolites to be determined (see FIG. 6D). Metabolynx software (Waters-MicroMass, Milford, Mass.) was used to interpret the spectra.
We identified the M#1 as a reduction product which is most probably a non-microsomal carbonyl reduction of a ketone to a secondary alcohol, as described in previous metabolism studies. In addition, M#2-3 were the same reduction products however, the alteration in retention time may indicate that the molecule undergoes reduction in sites other than that observed with M#1.

[7] = from U.S. application Ser. No. 11/178,553; cited from earlier work
[8] = HT-29 cells, 3 days, cell number as percent of control

COCC1OC(=O)C(=CN2CCCC2)C2=C(O)C(=O)C3=C(C(OC(C)=O)CC4(C)C(=O)CCC34)C21C (stereo not drawn) [PX-867, Acetic acid 6-hydroxy-1α-methoxymethyl-10β,13β-dimethyl-3,7,17-trioxo-4-pyrrolidin-1-yl-methylene-1,3,4,7,10,11β,12,13,14α,15,16,17-dodecahydro-2-oxa-cyclopenta[α]phenanthren-11-yl]
IC50 (PI-3 kinase): 1.1 nM
IC50 (mTOR): > 3000 nM
IC50 (NCI cell panel): 500 nM

17-hydroxy PX-866 [PX-866-2]
IC50 for inhibition of phospho-Ser473-Akt (ratio to total Akt) [1]: 40 nM
IC50 [2, 8]: > 50000 nM
inhibition of p110α isoform of PI-3 kinase [3]: as active as PX-866 or wortmannin
inhibition of p110δ isoform of PI-3 kinase [4]: as active as PX-866 or wortmannin

11-deacetylated,17-hydroxy PX-866 [PX-866-1]
IC50 for inhibition of phospho-Ser473-Akt (ratio to total Akt) [1]: greater than 70 nM
IC50 [2, 8]: 4500 nM
inhibition of p110α isoform of PI-3 kinase [3]: considerably less active
inhibition of p110δ isoform of PI-3 kinase [4]: considerably less active

COC[C@H]1OC(=O)c2coc3c2[C@@]1(C)C1=C(C3=O)[C@@H]2CCC(=O)[C@@]2(C)C[C@H]1OC(C)=O [Wortmannin, wortmannin, reference compound]
IC50 (NCI cell panel): 8900 nM

C=CCN(/C=C1/C(=O)O[C@H](COC)[C@@]2(C)C1=C(O)C(=O)C1=C2[C@H](OC(C)=O)C[C@]2(C)C(=O)CC[C@@H]12)CC=C [PX-866, Acetic acid 4-diallylaminomethylene-6-hydroxy-1-α-methoxymethyl-10β,13β-dimethyl-3,7,17-trioxo-1,3,4,7,10,11β,12,13,14α,15,16,17-dodecahydro-2-oxa-cyclopenta[α]phenanthren-11-yl ester]
IC50 (PI-3 kinase): 0.5 nM
IC50 (mTOR; read-out: mTOR inhibition IC50): > 3000 nM
IC50 (NCI cell panel): 2200 nM
IC50 ([2]; Homo sapiens, HT-29, 72 h): 4000 nM
% remaining ([5]; 20 mM sodium phosphate buffer): > 60%
% remaining ([5]; D5W (5% dextrose for injection)): > 80%
% degradation ([5]; EtOH (absolute ethanol)): < 10%
% degradation ([5]; NS (0.9% sodium chloride for injection)): < 10%
% degradation ([5]; SW (sterile water for injection)): < 10%
stability from 2 to 24 hours ([5]; regardless of the buffer system employed): maintained relative stability
type of metabolites formed [6]: only Phase I-type metabolites were formed
blood levels following oral administration [7]: low
